Experimental data taken from paper PMC8426393, “Interactions of anti-COVID-19 drug candidates with hepatic transporters may cause liver toxicity and affect pharmacokinetics” (Scientific Reports, 2021).
Entries after “also recorded” stand apart in the source; their conditions may differ. Read-outs that look alike come from different tables or passages of the source.

Tests used:
[1] = molecular target: T1, NTCP/SLC10A1 (Homo sapiens, UniProt Q14973); assay: NTCP-dependent taurocholate uptake in NTCP-overexpressing HEK-293 cells; type: cell-based; details: for NTCP/SLC10A1 Type of effect: taurocholate 2 µM, 2 min, 37 °C, HEK-293 cells
T1 construct: expressed in transfected cells; host or cells: HEK-293 cells, lentiviral transduction
T1 sequence (Q14973 1-349): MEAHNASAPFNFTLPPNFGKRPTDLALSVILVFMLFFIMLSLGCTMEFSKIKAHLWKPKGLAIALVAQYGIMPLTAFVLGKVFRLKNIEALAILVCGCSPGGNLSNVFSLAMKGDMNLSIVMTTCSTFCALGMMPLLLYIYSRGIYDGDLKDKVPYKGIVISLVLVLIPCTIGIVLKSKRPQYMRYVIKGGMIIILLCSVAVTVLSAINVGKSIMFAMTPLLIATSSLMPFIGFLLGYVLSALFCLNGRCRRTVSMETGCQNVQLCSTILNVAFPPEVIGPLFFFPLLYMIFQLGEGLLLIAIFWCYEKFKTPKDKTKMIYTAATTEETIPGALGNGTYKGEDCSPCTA

[2] = molecular target: T2, ABCB11/BSEP (Homo sapiens, UniProt O95342); assay: BSEP vesicular transport: ATP- and glyburide-sensitive taurocholate uptake into inverted HEK-293 membrane vesicles; type: biochemical; details: for ABCB11/BSEP Type of effect: HEK-293 vesicles; for concentration at which BSEP inhibition is effective: taurocholate transport
T2 construct: purchased Solvo Biotechnology (Budapest, Hungary); host or cells: HEK-293 cells

[3] = molecular target: T3, ABCC2/MRP2 (Homo sapiens, UniProt Q92887); assay: MRP2 vesicular transport: ATP-dependent CDCF uptake into inverted Sf9 membrane vesicles; type: biochemical; details: CDCF 5 µM, 37 °C, 10 min; for ABCC2/MRP2 Type of effect: Sf9 vesicles
T3 construct: made in house; host or cells: Sf9 insect cells (baculovirus)

[4] = molecular target: T4, MATE1/SLC47A1 (Homo sapiens, UniProt Q96FL8); assay: MATE1-dependent metformin uptake in MATE1-overexpressing MDCKII cells; type: cell-based; details: for MATE1/SLC47A1 Type of effect: metformin 10 µM, 10 min, 37 °C, MDCKII cells
T4 construct: expressed in transfected cells; host or cells: MDCKII cells, lentiviral transduction
T4 sequence (Q96FL8 1-570): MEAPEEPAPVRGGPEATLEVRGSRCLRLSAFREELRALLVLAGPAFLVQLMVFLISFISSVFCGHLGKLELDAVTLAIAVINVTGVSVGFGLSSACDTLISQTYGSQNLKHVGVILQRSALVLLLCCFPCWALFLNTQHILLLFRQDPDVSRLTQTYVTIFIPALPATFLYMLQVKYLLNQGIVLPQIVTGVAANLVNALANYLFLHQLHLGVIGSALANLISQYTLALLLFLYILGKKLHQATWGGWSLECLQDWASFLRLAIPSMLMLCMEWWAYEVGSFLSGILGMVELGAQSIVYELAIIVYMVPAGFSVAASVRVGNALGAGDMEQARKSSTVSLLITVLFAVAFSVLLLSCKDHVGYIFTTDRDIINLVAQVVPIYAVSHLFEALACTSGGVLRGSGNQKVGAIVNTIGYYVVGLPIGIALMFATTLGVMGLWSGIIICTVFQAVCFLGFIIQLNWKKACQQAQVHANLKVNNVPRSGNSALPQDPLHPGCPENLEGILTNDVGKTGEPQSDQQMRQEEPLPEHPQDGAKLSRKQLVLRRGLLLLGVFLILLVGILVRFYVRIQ

[5] = molecular target: T5, ABCC3/MRP3 (Homo sapiens, UniProt O15438); assay: MRP3 vesicular transport: ATP- and benzbromarone-sensitive CDCF uptake into inverted HEK-293 membrane vesicles; type: biochemical; details: for ABCC3/MRP3 Type of effect: HEK-293 vesicles; for concentration at which MRP3 transport is inhibited: CDCF uptake
T5 construct: purchased Solvo Biotechnology (Budapest, Hungary); host or cells: HEK-293 cells

[6] = molecular target: T6, ABCC4/MRP4 (Homo sapiens, UniProt O15439); assay: MRP4 vesicular transport: ATP-dependent DHEAS uptake into inverted HEK-293 membrane vesicles; type: biochemical; details: for inhibition at […]: up to 50 µM drug, read-out: maximum inhibition of MRP4-dependent substrate transport; for ABCC4/MRP4 Type of effect: DHEAS 0.5 µM, 32 °C, HEK-293 vesicles
T6 construct: purchased Solvo Biotechnology (Budapest, Hungary); host or cells: HEK-293 cells
T6 sequence (O15439 1-1325): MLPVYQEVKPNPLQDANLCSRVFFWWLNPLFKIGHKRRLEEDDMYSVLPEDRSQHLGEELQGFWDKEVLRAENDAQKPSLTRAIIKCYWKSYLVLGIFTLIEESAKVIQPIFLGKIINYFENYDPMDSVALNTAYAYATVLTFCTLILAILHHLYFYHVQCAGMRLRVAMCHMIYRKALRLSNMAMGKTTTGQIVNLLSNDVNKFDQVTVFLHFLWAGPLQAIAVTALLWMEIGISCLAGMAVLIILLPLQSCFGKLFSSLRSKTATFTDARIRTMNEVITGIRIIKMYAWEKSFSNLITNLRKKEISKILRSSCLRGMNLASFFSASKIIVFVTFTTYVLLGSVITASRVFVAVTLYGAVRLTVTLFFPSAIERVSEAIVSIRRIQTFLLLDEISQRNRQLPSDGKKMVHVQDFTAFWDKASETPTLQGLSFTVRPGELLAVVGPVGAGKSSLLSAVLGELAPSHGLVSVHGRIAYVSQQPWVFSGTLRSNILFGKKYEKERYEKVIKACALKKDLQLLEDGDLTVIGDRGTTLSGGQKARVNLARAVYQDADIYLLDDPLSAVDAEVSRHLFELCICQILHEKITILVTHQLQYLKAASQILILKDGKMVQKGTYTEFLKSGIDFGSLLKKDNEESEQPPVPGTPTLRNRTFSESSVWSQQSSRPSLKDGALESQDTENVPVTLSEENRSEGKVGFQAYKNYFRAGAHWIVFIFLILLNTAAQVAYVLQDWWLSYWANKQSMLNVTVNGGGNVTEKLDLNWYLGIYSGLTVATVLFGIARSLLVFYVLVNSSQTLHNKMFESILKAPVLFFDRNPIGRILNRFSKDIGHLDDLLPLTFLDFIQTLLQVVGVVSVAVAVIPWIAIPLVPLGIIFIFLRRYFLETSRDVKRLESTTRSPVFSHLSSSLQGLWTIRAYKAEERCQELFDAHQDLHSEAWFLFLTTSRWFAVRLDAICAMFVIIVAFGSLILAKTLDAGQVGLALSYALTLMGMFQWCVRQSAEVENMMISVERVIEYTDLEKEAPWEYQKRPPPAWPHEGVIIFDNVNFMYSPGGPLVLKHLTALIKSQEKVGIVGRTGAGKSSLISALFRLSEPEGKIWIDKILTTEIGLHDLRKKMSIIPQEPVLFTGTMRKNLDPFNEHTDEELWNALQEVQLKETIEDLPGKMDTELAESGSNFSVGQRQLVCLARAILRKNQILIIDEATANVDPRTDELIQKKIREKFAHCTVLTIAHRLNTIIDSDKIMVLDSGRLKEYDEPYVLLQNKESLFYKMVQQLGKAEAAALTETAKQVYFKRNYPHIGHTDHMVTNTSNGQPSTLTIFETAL

[7] = taurocholate 2 µM, 37 °C, 10 min
[8] = human, probe DHEAS (0.5 µM unlabeled plus 0.2 µCi radiolabeled)

T5 sequence (O15438 whole entry): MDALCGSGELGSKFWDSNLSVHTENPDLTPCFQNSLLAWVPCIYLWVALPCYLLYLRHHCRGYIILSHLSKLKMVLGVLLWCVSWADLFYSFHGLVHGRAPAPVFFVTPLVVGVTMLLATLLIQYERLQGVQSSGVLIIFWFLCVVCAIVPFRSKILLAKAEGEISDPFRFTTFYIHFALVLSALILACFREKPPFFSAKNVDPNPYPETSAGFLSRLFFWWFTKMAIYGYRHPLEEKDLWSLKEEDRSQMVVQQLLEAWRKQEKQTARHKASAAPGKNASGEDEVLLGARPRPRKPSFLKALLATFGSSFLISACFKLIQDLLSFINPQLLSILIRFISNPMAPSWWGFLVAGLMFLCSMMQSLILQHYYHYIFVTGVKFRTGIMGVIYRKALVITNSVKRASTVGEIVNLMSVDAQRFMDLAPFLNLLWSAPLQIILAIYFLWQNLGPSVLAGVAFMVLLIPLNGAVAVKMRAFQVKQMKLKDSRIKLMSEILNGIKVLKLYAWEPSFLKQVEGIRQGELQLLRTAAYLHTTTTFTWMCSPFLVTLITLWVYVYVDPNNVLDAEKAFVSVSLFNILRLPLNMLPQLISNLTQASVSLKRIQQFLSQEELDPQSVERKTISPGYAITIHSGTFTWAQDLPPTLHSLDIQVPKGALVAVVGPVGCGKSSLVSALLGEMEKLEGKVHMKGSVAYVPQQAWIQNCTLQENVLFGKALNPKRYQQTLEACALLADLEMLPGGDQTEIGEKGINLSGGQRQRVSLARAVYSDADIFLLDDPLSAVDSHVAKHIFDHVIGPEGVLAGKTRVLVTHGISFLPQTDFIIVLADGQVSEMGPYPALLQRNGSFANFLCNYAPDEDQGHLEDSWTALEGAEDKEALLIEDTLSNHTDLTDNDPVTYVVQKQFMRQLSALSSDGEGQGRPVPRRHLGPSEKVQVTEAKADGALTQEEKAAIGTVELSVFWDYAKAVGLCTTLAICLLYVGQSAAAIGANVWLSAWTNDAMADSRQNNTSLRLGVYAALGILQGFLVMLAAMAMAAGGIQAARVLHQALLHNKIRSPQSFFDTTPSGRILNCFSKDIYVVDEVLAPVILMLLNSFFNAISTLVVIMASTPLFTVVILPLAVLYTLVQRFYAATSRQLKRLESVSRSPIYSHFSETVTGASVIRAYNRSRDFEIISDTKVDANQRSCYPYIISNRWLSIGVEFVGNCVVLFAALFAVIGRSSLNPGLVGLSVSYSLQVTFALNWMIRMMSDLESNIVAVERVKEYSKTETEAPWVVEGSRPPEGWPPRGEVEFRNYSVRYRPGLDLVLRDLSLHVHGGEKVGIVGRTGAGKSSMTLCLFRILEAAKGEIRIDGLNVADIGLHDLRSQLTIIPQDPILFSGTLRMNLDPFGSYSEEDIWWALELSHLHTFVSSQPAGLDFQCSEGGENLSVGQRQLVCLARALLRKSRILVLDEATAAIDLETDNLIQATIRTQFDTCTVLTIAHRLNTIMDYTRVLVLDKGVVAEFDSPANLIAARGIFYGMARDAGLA
T3 sequence (Q92887 whole entry): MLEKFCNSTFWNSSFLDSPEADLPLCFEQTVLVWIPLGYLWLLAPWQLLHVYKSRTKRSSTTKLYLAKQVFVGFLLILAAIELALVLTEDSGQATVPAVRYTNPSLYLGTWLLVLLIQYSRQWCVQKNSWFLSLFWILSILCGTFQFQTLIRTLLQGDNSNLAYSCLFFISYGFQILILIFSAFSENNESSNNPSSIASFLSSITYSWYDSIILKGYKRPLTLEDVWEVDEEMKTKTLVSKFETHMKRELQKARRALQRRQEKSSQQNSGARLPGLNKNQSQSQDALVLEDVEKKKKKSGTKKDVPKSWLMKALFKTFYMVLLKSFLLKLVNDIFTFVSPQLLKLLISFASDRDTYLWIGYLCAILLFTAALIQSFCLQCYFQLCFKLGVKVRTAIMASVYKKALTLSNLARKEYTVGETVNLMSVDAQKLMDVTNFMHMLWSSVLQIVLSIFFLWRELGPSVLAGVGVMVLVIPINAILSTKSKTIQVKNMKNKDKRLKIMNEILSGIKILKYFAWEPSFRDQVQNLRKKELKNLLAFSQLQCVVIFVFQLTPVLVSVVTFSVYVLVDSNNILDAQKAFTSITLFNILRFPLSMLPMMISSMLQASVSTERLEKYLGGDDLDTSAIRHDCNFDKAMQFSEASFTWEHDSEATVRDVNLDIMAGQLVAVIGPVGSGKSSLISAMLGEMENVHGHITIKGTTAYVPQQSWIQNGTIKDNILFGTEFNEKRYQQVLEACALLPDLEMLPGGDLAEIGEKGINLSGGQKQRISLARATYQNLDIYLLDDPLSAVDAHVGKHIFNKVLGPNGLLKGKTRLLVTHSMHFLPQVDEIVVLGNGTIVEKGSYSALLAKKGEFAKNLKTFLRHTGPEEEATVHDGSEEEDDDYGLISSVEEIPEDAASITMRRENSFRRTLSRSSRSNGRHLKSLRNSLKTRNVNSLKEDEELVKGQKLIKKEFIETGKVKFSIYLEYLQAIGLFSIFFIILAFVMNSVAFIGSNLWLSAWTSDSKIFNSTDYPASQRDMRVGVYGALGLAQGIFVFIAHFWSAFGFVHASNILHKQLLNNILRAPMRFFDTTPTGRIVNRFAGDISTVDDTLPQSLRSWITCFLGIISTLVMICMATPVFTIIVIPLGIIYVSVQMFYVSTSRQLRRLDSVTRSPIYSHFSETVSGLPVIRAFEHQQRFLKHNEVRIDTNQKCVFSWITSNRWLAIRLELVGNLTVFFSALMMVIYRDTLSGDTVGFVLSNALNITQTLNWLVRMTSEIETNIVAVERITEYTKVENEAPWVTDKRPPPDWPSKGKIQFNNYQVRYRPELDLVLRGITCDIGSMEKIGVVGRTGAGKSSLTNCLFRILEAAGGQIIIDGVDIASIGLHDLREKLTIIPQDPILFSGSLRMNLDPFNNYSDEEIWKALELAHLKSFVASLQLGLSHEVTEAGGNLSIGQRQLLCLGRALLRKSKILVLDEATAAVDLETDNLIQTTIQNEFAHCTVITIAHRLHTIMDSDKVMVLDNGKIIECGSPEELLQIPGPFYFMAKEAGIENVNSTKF
T2 sequence (O95342 whole entry): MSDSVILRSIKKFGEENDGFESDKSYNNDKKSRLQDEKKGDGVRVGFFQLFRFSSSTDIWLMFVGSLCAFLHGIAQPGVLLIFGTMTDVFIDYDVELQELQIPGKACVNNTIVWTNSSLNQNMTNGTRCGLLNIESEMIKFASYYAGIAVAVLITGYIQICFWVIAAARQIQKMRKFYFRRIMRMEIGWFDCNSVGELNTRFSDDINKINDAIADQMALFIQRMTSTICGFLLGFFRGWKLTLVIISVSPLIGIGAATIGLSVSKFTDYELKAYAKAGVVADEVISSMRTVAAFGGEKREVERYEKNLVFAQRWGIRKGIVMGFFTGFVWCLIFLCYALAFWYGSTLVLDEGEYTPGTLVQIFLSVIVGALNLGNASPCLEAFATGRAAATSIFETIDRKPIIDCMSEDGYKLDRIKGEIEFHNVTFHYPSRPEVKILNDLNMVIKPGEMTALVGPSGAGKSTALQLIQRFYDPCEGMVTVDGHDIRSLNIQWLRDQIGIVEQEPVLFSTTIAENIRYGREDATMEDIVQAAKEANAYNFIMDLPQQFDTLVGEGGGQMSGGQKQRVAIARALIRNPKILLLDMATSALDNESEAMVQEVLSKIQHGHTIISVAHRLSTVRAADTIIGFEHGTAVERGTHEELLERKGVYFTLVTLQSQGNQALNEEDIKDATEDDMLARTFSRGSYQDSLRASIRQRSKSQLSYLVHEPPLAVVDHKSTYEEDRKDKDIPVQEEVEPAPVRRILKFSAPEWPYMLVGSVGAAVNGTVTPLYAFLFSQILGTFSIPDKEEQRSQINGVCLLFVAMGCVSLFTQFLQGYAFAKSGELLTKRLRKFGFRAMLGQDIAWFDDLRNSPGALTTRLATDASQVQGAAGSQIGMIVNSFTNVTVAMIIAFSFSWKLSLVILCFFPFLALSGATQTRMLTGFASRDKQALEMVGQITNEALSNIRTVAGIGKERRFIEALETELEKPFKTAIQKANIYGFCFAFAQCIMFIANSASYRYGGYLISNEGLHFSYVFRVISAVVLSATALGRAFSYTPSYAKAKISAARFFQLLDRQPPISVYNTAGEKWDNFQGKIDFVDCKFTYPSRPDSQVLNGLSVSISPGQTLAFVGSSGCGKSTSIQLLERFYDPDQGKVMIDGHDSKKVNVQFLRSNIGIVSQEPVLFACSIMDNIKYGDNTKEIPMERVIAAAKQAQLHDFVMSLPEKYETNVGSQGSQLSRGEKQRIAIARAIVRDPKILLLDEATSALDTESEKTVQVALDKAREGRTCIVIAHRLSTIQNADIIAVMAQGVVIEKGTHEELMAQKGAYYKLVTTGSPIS

Compound | NTCP/SLC10A1 Type of effect [1] | ABCB11/BSEP Type of effect [2, 7] | ABCC2/MRP2 Type of effect [3] | MATE1/SLC47A1 Type of effect [4] | ABCC3/MRP3 Type of effect ([5]; CDCF 5 µM, 37 °C, 10 min) | inhibition at […] [6, 8] [%] | IC50 ([2]; approximate IC50, taurocholate 2 µM, 37 °C, 10 min) [µM] | concentration at which BSEP inhibition is effective [2] | IC50 ([3]; approximate IC50) [µM] | concentration at which MRP3 transport is inhibited [5] [µM] | IC50 ([5]; approximate IC50, CDCF 5 µM, 37 °C, 10 min) [µM] | ABCC4/MRP4 Type of effect [6] | IC50 [1] [µM] | IC50 [2] [µM] | IC50 [4] [µM] | IC50 [5] [µM] | inhibition at 50 µM ([1]; HEK293, read-out: NTCP inhibition) [%] | inhibition at 10 min, 50 µM ([2]; human, at 50 µM) [%] | IC50 [6] [nM] | IC50 at […] [6, 8] [nM]
NC(=O)c1nc(F)c[nH]c1=O [FAV, favipiravir] | only minor inhibition | did not modify BSEP-mediated TC transport | no such effect | practically no inhibition | did not influence MRP3 transport at all | 10 to 30 | – | – | – | – | – | – | – | – | – | – | – | – | – | –
CCC(C)C1OC2(CCC1C)CC1CC(CC=C(C)C(OC3CC(OC)C(OC4CC(OC)C(O)C(C)O4)C(C)O3)C(C)C=CC=C3COC4C(O)C(C)=CC(C(=O)O1)C34O)O2 (stereo not drawn) [IVE, ivermectin] | only minor inhibition | inh | strongly decreased the accumulation of the probe substrate and inh | practically no inhibition; also recorded: No effect | inh | – | ≥ 30 | above 20 µM | ≥ 20 | > 20 | > 50 | No effect | – | – | – | – | – | – | – | –
Cc1cccc(C)c1OCC(=O)N[C@@H](Cc1ccccc1)[C@@H](O)C[C@H](Cc1ccccc1)NC(=O)[C@H](C(C)C)N1CCCNC1=O [LOP, lopinavir] | inh | strongly inhibited TC transport at low concentrations and inh | no such effect | strong inhibitory action and inh | inh | 10 to 30 | – | – | – | > 20 | – | No effect | ≥ 50 | 7.8 | 7.7 | > 40 | – | – | – | –
CCC(CC)COC(=O)[C@H](C)N[P@](=O)(OC[C@H]1O[C@@](C#N)(c2ccc3c(N)ncnn23)[C@H](O)[C@@H]1O)Oc1ccccc1 [REM, remdesivir] | inh | inh | did not inhibit but rather increased the probe substrate transport at high concentrations; also recorded: Increase | strong inhibitory action and inh | did not influence MRP3 transport at all; also recorded: did not inhibit; also recorded: No effect | – | – | above 20 µM | – | – | – | – | ≥ 50 | ≥ 40 | 2.3 | – | 40 to 50 | 40 to 50 | 2900 | ~2300
